Measured values published in publication PMC4607890, “The identification of novel Mycobacterium tuberculosis DHFR inhibitors and the investigation of their binding preferences by using molecular modelling” (Scientific Reports, 2015).

Experiments:
[1] = target: T1, mt-DHFR (Mycobacterium tuberculosis, UniProt P9WNX1); assay: biochemical; format: biochemical; conditions: for Ratio h-DHFR/mt-DHFR: ratio of IC50 values; for potency on mt-DHFR compared to h-DHFR: in vitro enzyme assays
T1 construct: made in house
T1 sequence (P9WNX1 whole entry): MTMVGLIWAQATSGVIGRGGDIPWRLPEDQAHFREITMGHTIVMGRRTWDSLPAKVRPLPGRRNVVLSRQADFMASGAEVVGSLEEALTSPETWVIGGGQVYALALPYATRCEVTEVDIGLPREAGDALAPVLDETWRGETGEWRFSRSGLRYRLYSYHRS

[2] = target: T2, h-DHFR (Homo sapiens, UniProt P00374); assay: in vitro enzyme assay, recombinant h-DHFR (NADPH oxidation at 340 nm); format: biochemical; conditions: recombinant enzyme 20 nM, 40 μM NADPH, 40 μM dihydrofolate, pH 7.0, 25 °C
T2 construct: made in house
T2 sequence (P00374 1-187): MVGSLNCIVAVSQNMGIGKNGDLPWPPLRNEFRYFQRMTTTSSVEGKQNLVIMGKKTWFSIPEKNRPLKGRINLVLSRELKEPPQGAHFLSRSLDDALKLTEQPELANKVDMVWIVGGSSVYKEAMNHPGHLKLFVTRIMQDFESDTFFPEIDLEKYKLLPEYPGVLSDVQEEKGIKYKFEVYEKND

[3] = tested on: M. tuberculosis H37Ra (ATCC 25177); assay: Microbroth culture for bacteriostatic and bactericidal activity (OD readings, subculture on 7H10 agar); format: cell-based, Mycobacterium tuberculosis; conditions: Mtb H37Ra; for growth inhibition on the test strain: overall
Experimental: The anti-mycobacterial activity of the compounds was tested by the measurement of OD readings and agar plate cultures. The test strain used was a stock culture of M. tuberculosis H37Ra (ATCC 25177) stored at −80 °C. Prior to testing, the stock culture was thawed and grown on Middlebrook 7H10 agar (Difco, USA) to check for viability and purity. To prepare the inoculum, a suspension of the culture in Middlebrook 7H9 broth (Difco, USA) was adjusted to a turbidity equivalent to McFarland standard no.1 and further diluted to a final concentration of approximately 10^5 cfu/ml. The compounds were dissolved in DMSO and diluted in 1% DMSO in 7H9 broth to obtain 100 μg/ml, 50 μg/ml, 10 μg/ml, 5 μg/ml 1 μg/ml and 0.1 μg/ml of compound. Each dilution was pipetted in 150 μl duplicates into a sterile 96-well microtitre plate. Three controls were set up with (a) 1% DMSO in 7H9 broth (b) 7H9 broth without DMSO and (c) p-amino salicylic acid (PAS) at 4 μg/ml (26.12 μM) in 7H9 broth with 1% DMSO. All wells were then inoculated with 10 μl of the mycobacterial culture at 10^5 cfu/ml, sealed with parafilm and incubated at 36 °C for 28 days. OD readings (at 630 nm wavelength) were taken daily using TECAN spectrophotometer with Magellan software version 7.1. In addition, on day 14 and day 28, 10 μl was removed from each well for subculturing on compound-free 7H10 agar plates which were incubated up to six weeks at 36 °C. The number, size and time of appearance of colonies in each subculture was recorded. A random sample of colonies was stained for acid-fastness to exclude non-mycobacterial contamination. […] Compounds showing less increase in OD readings than the no-compound controls but positive growth in the subcultures were deemed to have bacteriostatic activity.

[4] = tested on: mt-DHFR against h-DHFR; parameters: method as in PMID 17451962; conditions: TB5 Saccharomyces cerevisiae carrying DHFR genes; cited from earlier work
[5] = tested on: human DHFR (h-DHFR) and mt-DHFR; conditions: cited from earlier work
[6] = compound concentration 0.1 μg/ml
[7] = compound concentration 10 μg/ml
[8] = compound concentration 50 μg/ml
[9] = compound concentration 100 μg/ml

| Structure (SMILES) | IC50 [1] | Ratio h-DHFR/mt-DHFR [1] | IC50 [2] | colony counts after four weeks of exposure [3, 6] | colony counts after four weeks of exposure ([3]; compound concentration 1 μg/ml) | colony counts after four weeks of exposure ([3]; compound concentration 5 μg/ml) | colony counts after four weeks of exposure [3, 7] | colony counts after four weeks of exposure [3, 8] | colony counts after four weeks of exposure [3, 9] | also measured |
| --- | --- | --- | --- | --- | --- | --- | --- | --- | --- | --- |
| Nc1nc(N)c(-c2ccc(Cl)c(Cl)c2)c(COc2ccc([N+](=O)[O-])cc2)n1 [Compound 1] | 130 nM | 1 | 130 nM | +++ | +++ | +++ | +++ | +++ | +++ |  |
| Nc1nc(N)c(-c2ccc(Cl)c(Cl)c2)c(COc2cccc3ccccc23)n1 [Compound 2] | 110 nM | 0.64 | 70 nM | +++ | +++ | +++ | +++ | ++ (++, 11–100 colonies) | ++ (++, 11–100 colonies) |  |
| Nc1nc(N)c(-c2cccc(C(F)(F)F)c2)c(Cc2cccc(C(F)(F)F)c2)n1 [Compound 3] | 180 nM | 0.75 | 135 nM | +++ | +++ | +++ | +++ | ++ (++, 11–100 colonies) | + (+, 1–10 colonies) |  |
| Nc1ccc(C(=O)Nc2ccc(OCc3nc(N)nc(N)c3-c3ccc(Cl)cc3)cc2)cc1 [Compound 4] | 2600 nM | 0.96 | 2500 nM | +++ | +++ | +++ | +++ | ++ (++, 11–100 colonies) |  | activity compared with PAS (4 μg/ml) ([3]; 100 μg/ml): better activity than PAS; bactericidal activity ([3]; 100 μg/ml): bactericidal activity |
| CC(=O)Nc1cccc(OCc2cccc(N3C(=N)NC(=N)NC3(C)C)c2)c1 [Compound 5] |  |  |  | +++ | +++ | +++ | +++ | +++ | +++ |  |
| Nc1nc(N)c2c(ccc3c2ccn3Cc2cccc([N+](=O)[O-])c2)n1 [Compound 6] | 6 nM | 5.5 | 33 nM | +++ | +++ | +++ | ++ (++, 11–100 colonies) |  |  | inhibition of mt-DHFR ([1]; in vitro enzyme assay): most potent inhibitor of mt-DHFR; potency on mt-DHFR compared to h-DHFR [1]: more potent inhibitors of mt-DHFR compared to h-DHFR; activity compared with PAS (4 μg/ml, 26.12 μM) ([3]; 10 μg/ml (25.37 μM)): same activity as PAS; colony count ([3]; 10 μg/ml (25.37 μM)): notable reduction in colony count; bactericidal activity ([3]; 50 μg/ml): bactericidal; activity compared with PAS (4 μg/ml) ([3]; 100 μg/ml): better activity than PAS; bactericidal activity ([3]; 100 μg/ml): bactericidal activity; growth inhibition on the test strain [3]: strongest bactericidal activity |
| Nc1nc(N)c2cc(S(=O)(=O)c3ccc(Cl)cc3)ccc2n1 [Compound 7] | 63 nM | 6.98 | 440 nM | +++ | +++ | +++ | +++ | +++ | +++ | potency on mt-DHFR compared to h-DHFR [1]: more potent inhibitors of mt-DHFR compared to h-DHFR; growth inhibition on the test strain [3]: least growth inhibition, affecting the colony size but not the colony count |
| Nc1nc(N)c2cc(Sc3ccc(Cl)cc3)ccc2n1 [Compound 8] | 40 nM | 2.5 | 100 nM | +++ | +++ | +++ | +++ | +++ |  | potency on mt-DHFR compared to h-DHFR [1]: more potent inhibitors of mt-DHFR compared to h-DHFR; activity compared with PAS (4 μg/ml) ([3]; 100 μg/ml): better activity than PAS; bactericidal activity ([3]; 100 μg/ml): bactericidal activity; growth in the 14-day subculture ([3]; after exposure to 50 μg/ml): did not grow; growth in the 28-day subculture ([3]; after exposure to 50 μg/ml): formed abundant colonies |
| Nc1nc(N)c(-c2ccccc2)c(CC[C@@H](O)[C@@H](O)CO)n1 [El-7a] |  |  |  |  |  |  |  |  |  | selectivity for inhibition effects on mt-DHFR against h-DHFR [4]: notable selectivity |
| CN(Cc1cnc2nc(N)nc(N)c2n1)c1ccc(C(=O)N[C@@H](CCC(=O)O)C(=O)O)cc1 [MTX, Methotrexate] |  |  |  |  |  |  |  |  |  | selectivity of binding h-DHFR vs mt-DHFR [5]: without any significant selectivity |
| Nc1ccc(C(=O)O)c(O)c1 [PAS, p-amino salicylic acid, reference compound] |  |  |  |  |  |  |  |  |  | delay in the appearance of colonies ([3]; PAS 4 μg/ml (26.12 μM)): two-week delay; growth of colonies on 7H10 agar ([3]; PAS 4 μg/ml (26.12 μM)): only scanty growth; reduction in growth ([3]; PAS 4 μg/ml (26.12 μM)): more than two-log reduction in growth; colony counts after four weeks of exposure ([3]; PAS control at 4 μg/ml (26.12 μM)): ++ (++, 11–100 colonies) |
